{"source": "ChEMBL document CHEMBL3425398", "about": "“(Dis)similar Analogues of Riboswitch Metabolites as Antibacterial Lead Compounds” (J Med Chem, 2015)", "key": {"[1]": {"assay": "Binding affinity to guanine riboswitch in Bacillus subtilis"}, "[2]": {"assay": "Binding affinity to TPP riboswitch in Escherichia coli"}, "[3]": {"assay": "Binding affinity to thiC riboswitch in Escherichia coli"}, "[4]": {"assay": "Binding affinity to thiM riboswitch in Escherichia coli"}, "[5]": {"assay": "Binding affinity to TPP riboswitch in Bacillus subtilis"}, "[6]": {"assay": "Binding affinity to lysC riboswitch in Bacillus subtilis"}, "Staphylococcus aureus [7]": {"tested_on": "Staphylococcus aureus", "assay": "Antibacterial activity against Staphylococcus aureus in rich cation-adjusted Muller-Hinton broth", "assay_type": "functional"}, "Staphylococcus aureus [8]": {"tested_on": "Staphylococcus aureus", "assay": "Antibacterial activity against Staphylococcus aureus in rich cation-adjusted Muller-Hinton broth in presence of 1.5 mM DTT", "assay_type": "functional"}, "[9]": {"assay": "Activation of glmS riboswitch in Staphylococcus aureus"}, "Bacillus subtilis": {"tested_on": "Bacillus subtilis", "assay": "Antibacterial activity against Bacillus subtilis in chemical defined medium", "assay_type": "functional"}, "[10]": {"assay": "Activation of glmS riboswitch in Bacillus subtilis"}}, "data": [{"smiles": "Nc1nc2[nH]cnc2c(=O)[nH]1", "note": "[GUANINE]", "values": [{"measurement": "Kd", "setting": "[1]", "value": 5, "unit": "nM"}]}, {"smiles": "Cc1ncc(Cn2cc(CCOP(=O)(O)OP(=O)(O)O)nn2)c(N)n1", "values": [{"measurement": "Kd", "setting": "[2]", "value": 370, "unit": "nM"}]}, {"smiles": "Cc1ncc(Cn2nnc(CCOP(=O)(O)CP(=O)(O)O)c2C)c(N)n1", "values": [{"measurement": "Kd", "setting": "[2]", "value": 9, "unit": "nM"}]}, {"smiles": "Cc1ncc(C[n+]2csc(CCOP(=O)([O-])OP(=O)(O)O)c2C)c(N)n1", "note": "[THIAMIN DIPHOSPHATE]", "values": [{"measurement": "Kd", "setting": "[3]", "value": 100, "unit": "nM"}, {"measurement": "Kd", "setting": "[4]", "value": 600, "unit": "nM"}, {"measurement": "Kd", "setting": "[5]", "value": 50, "unit": "nM"}]}, {"smiles": "N=C(N)NCCCC[C@H](N)C(=O)O", "values": [{"measurement": "Kd", "setting": "[6]", "value": 7000, "unit": "nM"}]}, {"smiles": "NC/C=C/CC(N)C(=O)O", "note": "(racemic)", "values": [{"measurement": "Kd", "setting": "[6]", "value": 970, "unit": "nM"}]}, {"smiles": "Nc1nc(N)c(N)c(=O)[nH]1", "values": [{"measurement": "Kd", "setting": "[1]", "value": 100, "unit": "nM"}, {"measurement": "MIC", "setting": "Staphylococcus aureus [7]", "value": 4000, "unit": "µM"}, {"measurement": "MIC", "setting": "Staphylococcus aureus [8]", "value": 14, "unit": "µM"}]}, {"smiles": "CC(=O)Nc1nc(=O)c2[nH]cnc2[nH]1", "values": [{"measurement": "Kd", "setting": "[1]", "value": 0.5, "unit": "nM"}]}, {"smiles": "N[C@@H]1[C@@H](O)[C@H](O)[C@@H](COP(=O)(O)O)C[C@@H]1O", "values": [{"measurement": "EC50", "setting": "[9]", "value": 6200, "unit": "nM"}]}, {"smiles": "NCCOC[C@H](N)C(=O)O", "values": [{"measurement": "Kd", "setting": "[6]", "value": 13000, "unit": "nM"}, {"measurement": "MIC", "setting": "Bacillus subtilis", "value": 26, "unit": "µM"}]}, {"smiles": "NCCCC[C@H](N)C(=O)O", "note": "[LYSINE]", "values": [{"measurement": "Kd", "setting": "[6]", "value": 360, "unit": "nM"}]}, {"smiles": "N[C@H]1C(O)O[C@H](COP(=O)(O)O)[C@@H](O)[C@@H]1O", "note": "(stereo partly specified)", "values": [{"measurement": "EC50", "setting": "[10]", "value": 200000, "unit": "nM"}]}, {"smiles": "Nc1nc2[nH]cnc2/c(=N\\O)[nH]1", "values": [{"measurement": "Kd", "setting": "[1]", "value": 20, "unit": "nM"}]}, {"smiles": "Cc1ncc(C[n+]2cccc(CCOP(=O)([O-])OP(=O)(O)O)c2C)c(N)n1", "values": [{"measurement": "Kd", "setting": "[5]", "value": 160, "unit": "nM"}]}, {"smiles": "NCCSC[C@H](N)C(=O)O", "values": [{"measurement": "Kd", "setting": "[6]", "value": 30000, "unit": "nM"}, {"measurement": "MIC", "setting": "Bacillus subtilis", "value": 26, "unit": "µM"}]}]}
